Drawing on US11142527B2, “Dihydropyrimidine compounds and uses thereof in medicine” (SUNSHINE LAKE PHARMA CO., LTD., priority 2017, dated 2021), this text covers EC50 for 17 compounds.

SMILES strings stand for the structures. pEC50: −log10 of the molar value.

The subject of the assay is HBV. As to the kind of experiment: Test of anti HBV activity in vitro (viral DNA by qPCR). The assay is classed as cell-based. As to conditions: Hepatitis B virus; HepG2.2.15 cells, viral DNA in cell culture supernatant by qPCR; read-out: EC50 values of the compound of the invention on viral replication. On the procedure:
Test 1: Test Method of Calculating Anti HBV EC50
HBV Cell Line and Culture Conditions
HepG2.2.15 (SELLS, PNAS, 1987 and SELLS, JV, 1988) chromosomes have an integrated complete HBV genome, and stably express viral RNA and viral protein. HepG2.2.15 cells can secrete mature HBV particles, HBsAg and HBeAg, to medium. HepG2.2.15 cells were cultured in DMEM containing 10% fetal bovine serum, 100 U/mL penicillin, 100 U/mL streptomycin, 1% non essential amino acid, 1 mM sodium pyruvate and 300 μg/mL G418.
Viral particles DNA secreted from HepG2.2.15 cells can be quantified by qPCR, and the effect of the compound on viral replication can be detected.
Test of Anti HBV Activity In Vitro
8000 HepG 2.2.15 cells per well were seeded into a 96-well plate, the plate was cultured at 37° C. and 5% CO2 for 3 days till the cells grew to full wells. Old liquid medium can be removed and replaced with new medium (200 μL) on day 0.
Formulating the compound and treating the cells in the experiment of anti virus: the compound was dissolved in DMSO to a concentration of 30 mM, and then the compound solution was diluted with DMSO to a concentration of 800 μM, and then eight dilutions at 4 fold were performed, the highest concentration is 800 μM. The serial diluted compound was added to the above plate at 1 μL per well, the highest final concentration in the experiment is 4 μM (200 fold dilution). TDF (tenofovir dipiroxil fumarate, Selleck, Cat S1400) has a highest concentration of 4 μM as a positive control. 1 μL of DMSO was added in to the […] at a final concentration of 0.5%, TDF was added in to the […] at a final concentration of 1 μM.
Detection of Viral Genomic DNA by aPCR
Primer: HBV-For-202, […]; HBV-Rev-315, […]. Copies of virus can be calculated using a standard curve plotted by using plasmid containing HBV genome and using SYBR Premix Ex Taq II—Takara DRR081S kit and 1 μL cell culture supernatant as a template. EC50 values of the compound on viral replication were calculated by a four parametric nonlinear regression model using Graphpad Prism 5 software to manage concentration—viral copy number.
(In general: Real-time PCR tracks product formation cycle by cycle.)
By pEC50 is commonly meant the EC50 on a negative log10 scale, so that one unit is a factor of ten. On to `COC(=O)C1=C(CN2CCN3C(=O)N(C(C)(C)c4ccc(-c5ccc(C(=O)O)cc5)cc4)C[C@@H]3C2)NC(c2nccs2)=N[C@H]1c1ccc(F)cc1Cl` (stereo in doubt) [Example 11, 4′-(2-((S)-7-(((R)-6-(2-chloro-4-fluorophenyl)-5-(methoxycarbonyl)-2-(thiazol-2-yl)-3,6-dihydropyrimidin-4-yl)methyl)-3-oxohexahydroimidazo[1,5-a]pyrazin-2(3H)-yl)prop-2-yl)-[1,1′-diphenyl]-4-carboxylic acid], for which the negative logarithm of the EC50 (pEC50) is 7.49. For `CONC(=O)c1ccc(C#CCN2C[C@@H]3CN(CC4=C(C(=O)OC)[C@H](c5ccc(F)cc5Cl)N=C(c5nccs5)N4)CCN3C2=O)cc1` [Example 40, (R)-methyl 4-(2-chloro-4-fluorophenyl)-6-(((S)-2-(3-(4-(methoxycarbamoyl)phenyl)prop-2-yn-1-yl)-3-oxohexahydroimidazo[1,5-a]pyrazin-7(1H)-yl)methyl)-2-(thiazol-2-yl)-1,4-dihydropyrimidine-5-carboxylate], the pEC50 is 8.09. Take `COC(=O)C1=C(CN2CCN3C(=O)N(c4ccc(Oc5cccc(C(=O)O)c5)cn4)C[C@@H]3C2)NC(c2nccs2)=N[C@H]1c1ccc(F)cc1Cl` [Example 16, 3-((6-((S)-7-(((R)-6-(2-chloro-4-fluorophenyl)-5-(methoxycarbonyl)-2-(thiazol-2-yl)-3,6-dihydropyrimidin-4-yl)methyl)-3-oxohexahydroimidazo[1,5-a]pyrazin-2(3H)-yl)pyridin-3-yl)oxy)benzoic acid]: the negative logarithm of the EC50 (pEC50) is 7.92. As to `COC(=O)C1=C(CN2CCN3C(=O)N(c4ccc(C5(C(=O)O)CCC5)cc4)C[C@@H]3C2)NC(c2nccs2)=N[C@H]1c1ccc(F)cc1Cl` [Example 28, 1-(4-((S)-7-(((R)-6-(2-chloro-4-fluorophenyl)-5-(methoxycarbonyl)-2-(thiazol-2-yl)-3,6-dihydropyrimidin-4-yl)methyl)-3-oxohexahydroimidazo[1,5-a]pyrazin-2(3H)-yl)phenyl)cyclobutane carboxylic acid], the pEC50 was 8.40.

Regarding `COC(=O)C1=C(CN2CCN3C(=O)N(Cc4ccc(-c5ccc(C(=O)O)cc5)cc4)C[C@@H]3C2)NC(c2nccs2)=N[C@H]1c1ccc(F)cc1Cl` [Example 10, 4′-(((S)-7-(((R)-6-(2-chloro-4-fluorophenyl)-5-(methoxycarbonyl)-2-(thiazol-2-yl)-3,6-dihydroprimidin-4-yl)methyl)-3-oxohexahydroimidazo[1,5-a]pyrazin-2(3H)-yl)methyl)-[1, 1′-diphenyl]-4-carboxylic acid], the pEC50 is 7.70. Turning to `COC(=O)C1=C(CN2CCN3C(=O)N(c4ccc(-c5ccc(C(=O)O)cc5)cc4)C[C@@H]3C2)NC(c2nccs2)=N[C@H]1c1ccc(F)cc1Cl` [Example 12], the pEC50 was 7.89. For the compound `COC(=O)C1=C(CN2CCN3C(=O)N(CC#Cc4ccc(C(=O)O)cc4F)C[C@@H]3C2)NC(c2nccs2)=N[C@H]1c1ccc(F)cc1Cl` [Example 4, 4-(3-((S)-7-(((R)-6-(2-chloro-4-fluorophenyl)-5-(methoxycarbonyl)-2-(thiazol-2-yl)-3,6-dihydropyrimidin-4-yl)methyl)-3-oxohexahydroimidazo[1,5-a]pyrazin-2(3H)-yl)prop-1-yn-1-yl)-3-fluorobenzoic acid], the pEC50 was 7.70. Regarding `COC(=O)C1=C(CN2CCN3C(=O)N(c4cc(F)cc(Oc5ccc(C(=O)O)cc5F)c4)C[C@@H]3C2)NC(c2nccs2)=N[C@H]1c1ccc(F)cc1Cl` [Example 13, 4-(3-((S)-7-(((R)-6-(2-chloro-4-fluorophenyl)-5-(methoxycarbonyl)-2-(thiazol-2-yl)-3,6-dihydropyrimidin-4-yl)methyl)-3-oxohexahydroimidazo[1,5-a]pyrazin-2(3H)-yl)-5-fluorophenoxy)-3-fluorobenzoic acid], the negative-log EC50 (pEC50) is 7.66.

For `COC(=O)C1=C(CN2CCN3C(=O)N(CC#Cc4cccc(C(=O)O)c4)C[C@@H]3C2)NC(c2nccs2)=N[C@H]1c1ccc(F)cc1Cl` [Example 2, 3-(3-((S)-7-(((R)-6-(2-chloro-4-fluorophenyl)-5-(methoxycarbonyl)-2-(thiazol-2-yl)-3,6-dihydropyrimidin-4-yl)methyl)-3-oxohexahydroimidazo[1,5-a]pyrazin-2(3H)-yl)prop-1-yn-1-yl)benzoic acid], the pEC50 was 7.98. `COC(=O)C1=C(CN2CCN3C(=O)N(CC#Cc4ccc(OC)cc4)C[C@@H]3C2)NC(c2nccs2)=N[C@H]1c1ccc(F)cc1Cl` [Example 45, (R)-methyl 4-(2-chloro-4-fluorophenyl)-6-(((S)-2-(3-(4-methoxyphenyl)prop-2-yn-1-yl)-3-oxohexahydroimidazo[1,5-a]pyrazin-7(1H)-yl)methyl)-2-(thiazol-2-yl)-1,4-dihydropyrimidine-5-carboxylate]: the pEC50 was 7.84.

Turning to `COC(=O)C1=C(CN2CCN3C(=O)N(c4ccc(Oc5ccc(C(=O)O)cn5)cc4)C[C@@H]3C2)NC(c2nccs2)=N[C@H]1c1ccc(F)cc1Cl` [Example 78, 6-(4-((S)-7-(((R)-6-(2-chloro-4-fluorophenyl)-5-(methoxycarbonyl)-2-(thiazol-2-yl)-3,6-dihydropyrimidin-4-yl)methyl)-3-oxohexahydroimidazo[1,5-a]pyrazin-2(3H)-yl)phenoxy)nicotinic acid], the pEC50 was 7.41.

Consider `COC(=O)C1=C(CN2CCN3C(=O)N(c4ccc(C5(C(=O)O)CC5)cc4)C[C@@H]3C2)NC(c2nccs2)=N[C@H]1c1ccc(F)cc1Cl` [Example 27, 1-(4-((S)-7-(((R)-6-(2-chloro-4-fluorophenyl)-5-(methoxycarbonyl)-2-(thiazol-2-yl)-3,6-dihydropyrimidin-4-yl)methyl)-3-oxohexahydroimidazo[1,5-a]pyrazin-2(3H)-yl)phenyl)cyclopropane carboxylic acid], for which the negative-log EC50 (pEC50) was 8.00. Take `COC(=O)C1=C(CN2CCN3C(=O)N(c4ccc(Oc5ccc(C(=O)O)cc5F)cc4F)C[C@@H]3C2)NC(c2nccs2)=N[C@H]1c1ccc(F)cc1Cl` [Example 14, 4-(4-((S)-7-(((R)-6-(2-chloro-4-fluorophenyl)-5-(methoxycarbonyl)-2-(thiazol-2-yl)-3,6-dihydropyrimidin-4-yl)methyl)-3-oxohexahydroimidazo[1,5-a]pyrazin-2(3H)-yl)-3-fluorophenoxy)-3-fluorobenzoic acid]: the pEC50 was 7.64. On to `COC(=O)C1=C(CN2CCN3C(=O)N(c4ccc(-c5cnc(C)[nH]5)cc4)C[C@@H]3C2)NC(c2nccs2)=N[C@H]1c1ccc(F)cc1Cl` [Example 107, (R)-methyl 4-(2-chloro-4-fluorophenyl)-6-(((S)-2-(4-(2-methyl-1H-imidazol-5-yl)phenyl)-3-oxohexahydroimidazo[1,5-a]pyrazin-7(1H)-yl)methyl)-2-(thiazol-2-yl)-1,4-dihydropyrimidine-5-carboxylate], for which the negative-log EC50 (pEC50) is 8.19.

In the case of `COC(=O)C1=C(CN2CCN3C(=O)N(CC#Cc4ccc(C(=O)O)cc4)C[C@@H]3C2)NC(c2nccs2)=N[C@H]1c1ccc(F)cc1Cl` [Example 1, 4-(3-((S)-7-(((R)-6-(2-chloro-4-fluorophenyl)-5-(methoxycarbonyl)-2-(thiazol-2-yl)-3,6-dihydropyrimidin-4-yl)methyl)-3-oxohexahydroimidazo[1,5-a]pyrazin-2(3H)-yl)prop-1-yn-1-yl)benzoic acid], the pEC50 was 8.07. Consider `COC(=O)C1=C(CN2CCN3C(=O)N(c4ccc(-c5ccc(C(C)(C)C(=O)O)cc5)cc4)C[C@@H]3C2)NC(c2nccs2)=N[C@H]1c1ccc(F)cc1Cl` [Example 18, 2-(4′-((S)-7-(((R)-6-(2-chloro-4-fluorophenyl)-5-(methoxycarbonyl)-2-(thiazol-2-yl)-3,6-dihydropyrimidin-4-yl)methyl)-3-oxohexahydroimidazo[1,5-a]pyrazin-2(3H)-yl)-[1,1′-diphenyl]-4-yl)-2-methyl propionic acid], for which the negative-log EC50 (pEC50) is 7.89.

`COC(=O)C1=C(CN2CCN3C(=O)N(c4cc(F)cc(N5CCO[C@H](CCC(=O)O)C5)c4)C[C@@H]3C2)NC(c2nccs2)=N[C@H]1c1ccc(F)cc1Cl` [Example 131, 3-((R)-4-(3-((S)-7-(((R)-6-(2-chloro-4-fluorophenyl)-5-(methoxycarbonyl)-2-(thiazol-2-yl)-3,6-dihydropyrimidin-4-yl)methyl)-3-oxohexahydroimidazo[1,5-a]pyrazin-2(3H)-yl)5-fluorophenyl)morpholin-2-yl)propanoic acid]: the negative logarithm of the EC50 (pEC50) was 8.07.
